Test results as given in paper PMC3646888 (PLoS ONE, 2013).
Entries after “also recorded” stand apart in the source; their conditions may differ.

How the values were obtained:
Type in all cases: in vitro ADME
[1] = target: T1, CYP19A1h (Homo sapiens, UniProt P11511); experiment: Fluorescence-based CYP assay, recombinant CYP19A1h, substrate DBF
T1 sequence (P11511 1-503): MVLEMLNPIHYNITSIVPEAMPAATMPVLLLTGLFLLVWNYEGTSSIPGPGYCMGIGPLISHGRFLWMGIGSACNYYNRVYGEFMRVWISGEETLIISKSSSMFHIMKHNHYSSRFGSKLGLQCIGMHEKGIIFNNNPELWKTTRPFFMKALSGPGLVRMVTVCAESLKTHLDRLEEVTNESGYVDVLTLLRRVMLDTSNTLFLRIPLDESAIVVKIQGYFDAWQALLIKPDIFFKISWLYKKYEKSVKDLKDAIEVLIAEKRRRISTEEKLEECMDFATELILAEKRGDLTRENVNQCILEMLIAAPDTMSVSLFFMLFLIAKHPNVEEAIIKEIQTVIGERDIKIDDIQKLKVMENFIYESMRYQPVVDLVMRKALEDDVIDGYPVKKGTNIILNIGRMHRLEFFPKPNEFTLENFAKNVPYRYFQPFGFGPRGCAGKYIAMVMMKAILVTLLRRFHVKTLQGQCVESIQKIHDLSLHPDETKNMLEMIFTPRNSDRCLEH
Description: (§1) These assays were performed by methods similar to those described by VanAlstine and Hough, Stresser et al., Wulff et al., Henderson et al., and Crespi et al., with minor modifications. All incubations were performed in a final volume of 200 µL of 50 mM potassium phosphate buffer at pH 7.4 containing 1% acetonitrile. CYP inhibitor studies were performed according to the parameters of Table 1. Substrate concentrations were chosen to be near known Km values. As described in the references cited, two different NADPH regenerating systems were used depending on the substrates used (Table 1). […] Samples were pre-incubated at 37°C for the designated times, and the reactions were initiated with the addition of a substrate and enzyme mixtures (Table 1). […] For the assays utilizing the “high” regenerating system, enzyme reactions were terminated at the designated time by the addition of 75 µL of 2N NaOH, followed by a 2 h post-incubation at 37°C. Product formation was then measured at the designated wavelengths (Table 1). For the “low” regenerating system assays, blanks and standards were prepared in 0.1 mL buffer without the regenerating system. For the “high” regenerating system assays, blanks and standards containing 0.1 mL of buffer received 75 µL of 2N NaOH following pre-incubation.

[2] = target: T2, CYP3A4 (Homo sapiens, UniProt P08684); experiment: Fluorescence-based CYP3A4 assay with DBF as substrate
T2 sequence (P08684 whole entry): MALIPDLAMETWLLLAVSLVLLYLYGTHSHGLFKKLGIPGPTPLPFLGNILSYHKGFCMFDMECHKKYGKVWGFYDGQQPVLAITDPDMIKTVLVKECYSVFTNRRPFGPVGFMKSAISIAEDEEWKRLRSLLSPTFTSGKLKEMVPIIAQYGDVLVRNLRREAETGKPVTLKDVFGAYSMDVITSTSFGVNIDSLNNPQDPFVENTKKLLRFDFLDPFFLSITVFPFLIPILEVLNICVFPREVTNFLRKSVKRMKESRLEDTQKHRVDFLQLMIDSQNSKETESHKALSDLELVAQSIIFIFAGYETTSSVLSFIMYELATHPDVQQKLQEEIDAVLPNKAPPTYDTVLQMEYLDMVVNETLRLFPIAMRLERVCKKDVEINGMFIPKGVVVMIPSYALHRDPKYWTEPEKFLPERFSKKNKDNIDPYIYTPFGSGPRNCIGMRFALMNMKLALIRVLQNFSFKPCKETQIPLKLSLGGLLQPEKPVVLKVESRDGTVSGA
Description: as §1

[3] = target: T2, CYP3A4; experiment: CYP3A4 assay with LVS as substrate (LC-MS/MS); settings: for IC50 at 20 min: human; for IC50: substrate LVS 10 µM
Description: CYP3A4-containing Supersomes (2 pmol) were incubated with LVS (10 µM) in a 200 µl reaction mixture containing 0.1 M potassium phosphate buffer, pH 7.4, 1.0 mM NADPH, and 3 mM MgCl2 for 20 min at 37°C. The reaction was initiated by the addition of NADPH, and terminated by the addition of 400 µL of acetonitrile to the reaction mixture. Samples were extracted and analyzed for the two major LVS metabolites 6′β-hydroxy LVS and 6′-exomethylene LVS by LC-MS-MS exactly as described.

Clc1ccccc1C(c1ccccc1)(c1ccccc1)n1cccn1 [TRAM-34, 1-[(2-chlorophenyl)diphenylmethyl]-1H-pyrazole]
IC50 [1]: > 80000 nM
Inhibition of CYP19A1h (in words) ([1]; up to 80 µM): little to no inhibition; also recorded: no inhibitory effects
IC50 [2]: 3600 nM
IC50 at 20 min ([3]; pH 7.4, IC50, formation of 6′-exomethylene LVS by CYP3A4, substrate LVS 10 µM): 640 nM
IC50 at 20 min ([3]; pH 7.4, IC50, formation of 6′β-hydroxy LVS by CYP3A4, substrate LVS 10 µM): 920 nM
IC50 ([3]; read-out: IC50, formation of 6′-exomethylene LVS by CYP3A4): ~1000 nM
IC50 ([3]; read-out: IC50, formation of 6′β-hydroxy LVS by CYP3A4): ~1000 nM
